Assay results reported in US20130122541A1, “MICROORGANISM PRODUCTION OF HIGH-VALUE CHEMICAL PRODUCTS, AND RELATED COMPOSITIONS, METHODS AND SYSTEMS” (The Regents of the University of Colorado, priority 2010, published 2013).

How the values were obtained:
E. coli = assay: microbe, parasite or virus in culture; format: cell-based; conditions: for % Increase Over Control: anaerobic
Procedure: For MIC evaluations, the final results are expressed in chemical agent concentrations determined by analysis of the stock solution by HPLC (i.e., see Subsection IIIb).
The minimum inhibitory concentration (MIC) was determined anaerobically in a 96 well-plate format. […] Media supplements were added according to levels reported in the Supplements Table, where specified. Overnight cultures of strains were grown in triplicate in 5 mL LB (with antibiotic where appropriate). A 1% (v/v) inoculum was introduced into a 5 ml culture of M9 minimal media.

[1] = Reactive extraction of 3-HP from clarified fermentation broth into tertiary amine non-polar phase with co-solvents; format: physicochemical; conditions: for 3-HP concentration raffinate: start 96.85 g/L 3-HP, single pass
Procedure: Calcium chloride at 1 M was added as a flocculent to reach a final concentration of about 8.2 g/L. Thereafter the pH was adjusted to a pH of approximately 2.0 using sulfuric acid. Thereafter a volume of this modified fermentation broth was centrifuged at approximately 3,200 g for 5 minutes to yield a clarified broth and a pellet, which was discarded.
Portions of the clarified broth were then subjected to reactive extraction by mixing with a tertiary amine non-polar phase comprising various co-solvents. […] Amines included Alamine 336, described above, and tripentylamine.

[2] = system: wild-type E. coli BW25113; assay: Growth response to 3-HP (toleragram, OD600, doublings over 24 h), E. coli aerobic; format: cell-based; conditions: aerobic condition, FIG. 15B
Procedure: Overnight cultures of wild-type E. coli BW25113 were grown in triplicate in 5 mL standard LB medium. 100 uL of overnight cultures were used to inoculate triplicate 5 mL samples of M9 minimal medium+3HP, containing 47.7 mM Na2HPO4, 22 mM KH2PO4, 8.6 mM NaCl, 18.7 mM NH4Cl, 2 mM MgSO4, 0.1 mM CaCl2, and 0.4% glucose, with 3HP concentrations ranging from 0-50 g/L. Starting OD600 ranged from 0.02-0.08. Cultures were incubated at 37 C for about 24 hours, and OD600 was recorded every 1-2 hours for the first 8 hours with a final OD600 recorded at about 24 hours. Maximum specific growth rates (μmax) were calculated by determining the optimal fit of exponential trend lines with OD data for the evaluation period. Specific changes in OD600 over approximately 24 hours (Δ24 hrOD600) were calculated as the difference in t=24 hr and t=0 optical density, Δ24hOD600=(ODt=24)−(ODt=0). Specific number of doublings (Nd) were calculated by solving for N in the equation 2^N=(ODt=24)/(ODt=0).

[3] = sample 1: Alamine 336 with Butanol
[4] = sample 2: Tripentylamine with Butanol
[5] = sample 3: Tripentylamine with p-Xylene
[6] = sample 4: Tripentylamine with Methyl ethyl ketone
[7] = sample 5: Tripentylamine with Methyl tert-butyl ether
[8] = sample 1: Alamine 336 with Butanol, 3-HP mass start 0.97 G
[9] = sample 2: Tripentylamine with Butanol, 3-HP mass start 1.94 G
[10] = sample 3: Tripentylamine with p-Xylene, 3-HP mass start 1.94 G
[11] = sample 4: Tripentylamine with Methyl ethyl ketone, 3-HP mass start 1.94 G
[12] = sample 5: Tripentylamine with Methyl tert-butyl ether, 3-HP mass start 1.94 G

In the case of O=C(O)CCO [3-HP, 3-hydroxypropionic acid], the MIC (E. coli; Escherichia coli, BW25113, read-out: MIC Assay Result (g/L 3-HP), anaerobic, strain BX_00426.0: BW25113 ΔnrdR::frt, pSmart-HC-Amp-cadA, M9 + Amp (100 μg/mL)) is reported as 26.7 g/L, the “% Increase Over Control” value (E. coli; strain BX_00311.0 (pSmart-LC-Kan-glyA-ORF)) is reported as 20% and the “% Increase Over Control” value (E. coli; strain BX_00319.0 (pK223-aroH)) is reported as 33%. The “% Increase Over Control” value (E. coli; strain BX_00320.0 (pK223-metE C645A)) was 33%, the “% Increase Over Control” value (E. coli; strain BX_00321.0 (pK223-ct-his-thrA)) was 33% and the “% Increase Over Control” value (E. coli; strain BX_00322.0 (pJ61-speFED)) was 67%. The “% Increase Over Control” value (E. coli; strain BX_00323.0 (pJ61-aroG)) was 33%, the “% Increase Over Control” value (E. coli; strain BX_00324.0 (pJ61-thrA)) was 33% and the “% Increase Over Control” value (E. coli; strain BX_00325.0 (pJ61-asd)) was 33%. The “% Increase Over Control” value (E. coli; strain BX_00326.0 (pJ61-ilvA)) was 33%, the “% Increase Over Control” value (E. coli; strain BX_00327.0 (pJ61-cysM)) was 33% and the “% Increase Over Control” value (E. coli; strain BX_00357.0 (pKK223-aroH*445)) was 33%. The “% Increase Over Control” value (E. coli; strain BX_00358.0 (pKK223-aroH*447)) was 33%, the “% Increase Over Control” value (E. coli; strain BX_00359.0 (pKK223-aroH*457)) was 33% and the “% Increase Over Control” value (E. coli; strain BX_00360.0 (pACYC177 (Kan only)-cynTS)) was 33%. For the same molecule, the “% Increase Over Control” value (E. coli; strain BX_00362.0 (pACYC177 (Kan only)-aroH)) was 33%, the “% Increase Over Control” value (E. coli; strain BX_00363.0 (pACYC177 (Kan only)-speB)) was 33% and the “% Increase Over Control” value (E. coli; strain BX_00364.0 (pACYC177 (Kan only)-metE)) was 33%. The “% Increase Over Control” value (E. coli; strain BX_00365.0 (pACYC177 (Kan only)-metC)) was 33%, the “% Increase Over Control” value (E. coli; strain BX_00368.0 (pBT-3-cynTS)) was 33% and the “% Increase Over Control” value (E. coli; strain BX_00426.0 (ΔnrdR::frt, pSmart-HC-Amp-cadA)) was 7%. The “Total 3HP extracted” value [1, 3] was 0.59 G, the “Total 3HP extracted” value [1, 4] was 1.13 G and the “Total 3HP extracted” value [1, 5] was 0.46 G. For the same molecule, the “Total 3HP extracted” value [1, 6] was 1.31 G, the “Total 3HP extracted” value [1, 7] was 0.73 G and the % 3-HP extracted [1, 3] was 61%. It also gave a % 3-HP raffinate [1, 3] of 39%, a 3-HP concentration raffinate ([1]; sample 1: Alamine 336 with Butanol co-solvent) of 53.94 g/L and a 3-HP mass extractant [1, 8] of 0.59 G. It also gave a 3-HP mass raffinate [1, 8] of 0.38 G, a % 3-HP extracted [1, 4] of 58% and a % 3-HP raffinate [1, 4] of 42%. For the same molecule, the 3-HP concentration raffinate ([1]; sample 2: Tripentylamine with Butanol co-solvent) was 54.17 g/L, the 3-HP mass extractant [1, 9] was 1.13 G and the 3-HP mass raffinate [1, 9] was 0.81 G. The % 3-HP extracted [1, 5] was 24%, the % 3-HP raffinate [1, 5] was 76% and the 3-HP concentration raffinate ([1]; sample 3: Tripentylamine with p-Xylene co-solvent) was 78.69 g/L. It also gave a 3-HP mass extractant [1, 10] of 0.46 G, a 3-HP mass raffinate [1, 10] of 1.47 G and a % 3-HP extracted [1, 6] of 67%. The % 3-HP raffinate [1, 6] was 33%, the 3-HP concentration raffinate ([1]; sample 4: Tripentylamine with Methyl ethyl ketone co-solvent) was 52.75 g/L and the 3-HP mass extractant [1, 11] was 1.31 G. The 3-HP mass raffinate [1, 11] was 0.63 G, the % 3-HP extracted [1, 7] was 38% and the % 3-HP raffinate [1, 7] was 62%. It also gave a 3-HP concentration raffinate ([1]; sample 5: Tripentylamine with Methyl tert-butyl ether co-solvent) of 67.64 g/L, a 3-HP mass extractant [1, 12] of 0.73 G and a 3-HP mass raffinate [1, 12] of 1.21 G. The “3-HP concentration at which a dramatic reduction in cell density (OD600) at 24 hours starts” value [2] was 30 g/L.
